US7456167B2, “Cyclopropyl fused indolobenzazepine HCV NS5B inhibitors” (Bristol-Myers Squibb Company, priority 2006, dated 2008)

Tests used:
HCV replicon cells = assay: HCV replicon FRET assay; assay type: cell-based; conditions: Hepatitis C virus; HCV replicon cells; FRET assay; read-out: EC50
Excerpt: FRET Assay Preparation. To perform the HCV FRET screening assay, 96-well cell culture plates were used. The FRET peptide (Anaspec, Inc.) (Taliani et al., Anal. Biochem. 1996, 240, 60-67) contains a fluorescence donor, EDANS, near one end of the peptide and an acceptor, DABCYL, near the other end. The fluorescence of the peptide is quenched by […] resonance energy transfer (RET) between the donor and the acceptor, but as the NS3 protease cleaves the peptide the products are released from RET quenching and the fluorescence of the donor becomes apparent. The assay reagent was made as follows: 5× cell Luciferase cell culture lysis reagent from Promega (#E153A) diluted to 1× with dH2O, NaCl added to 150 mM final, the FRET peptide diluted to 20 uM final from a 2 mM stock.
To prepare plates, HCV replicon cells, with or without a Renilla luciferase reporter gene, were trypsinized and placed into each well of a 96-well plate with titrated test compounds added in columns 3 through 12; columns 1 and 2 contained a control compound (HCV protease inhibitor), and the bottom row contained cells without compound. The plates were then placed in a CO2 incubator at 37° C.
Assays. Subsequent to addition of the test compounds described above (FRET Assay Preparation), at various times the plate was removed and Alamar blue solution (Trek Diagnostics, #00-100) was added per well as a measure of cellular toxicity. After reading in a Cytoflour 4000 instrument (PE Biosystems), plates were rinsed with PBS and then used for FRET assay by the addition of 30 ul of the FRET peptide assay reagent described above (FRET Assay Preparation) per well. The plate was then placed into the Cytoflour 4000 instrument which had been set to 340 excite/490 emission, automatic mode for 20 cycles and the plate read in a kinetic mode. Typically, the signal to noise using an endpoint analysis after the reads was at least three-fold. Alternatively, after Alamar blue reading, plates were rinsed with PBS, 50 ul of DMEM (high glucose) without phenol red was added and plates were then used for luciferase assay using the Promega Dual-Glo Luciferase Assay System.
Compound analysis was determined by quantification of the relative HCV replicon inhibition and the relative cytotoxicity values. To calculate cytoxicity values, the average Alamar Blue fluorescence signals from the control wells were set as 100% non-toxic. The individual signals in each of the compound test wells were then divided by the average control signal and multiplied by 100% to determine […]. To calculate the HCV replicon inhibition values, an average background value was obtained from the two wells containing the highest amount of HCV protease inhibitor at the end of the assay period. These numbers were similar to those obtained from naïve Huh-7 cells.
The background numbers were then subtracted from the average signal obtained from the control wells and this number was used as 100% activity. The individual signals in each of the compound test wells were then divided by the averaged control values after background subtraction and multiplied by 100% to determine percent activity. EC50 values for a protease inhibitor titration were calculated as the concentration which caused a 50% reduction in FRET or luciferase activity. The two numbers generated for the compound plate, percent cytoxicity and percent activity were used to determine compounds of interest for further analysis.

[1] = molecular target: T1, HCV NS5B RdRp genotype 1b (Hepatitis C virus genotype 1b, UniProt Q9WMX2); assay: Modified HCV NS5B RdRp enzyme assay (preincubation protocol); assay type: biochemical; conditions: HCV NS5B RdRp genotype 1b; preincubation protocol; read-out: IC50
T1 construct: The protein was expressed with an 18 amino acid C-terminal truncation to enhance the solubility; made in house; host or cells: E. coli BL21(DE3)
Procedure: HCV NS5B RdRp cloning, expression, and purification. The cDNA encoding the NS5B protein of HCV, genotype 1b, was cloned into the pET21a expression vector. The protein was expressed with an 18 amino acid C-terminal truncation to enhance the solubility. The E. coli competent cell line BL21(DE3) was used for expression of the protein. Cultures were grown at 37° C. for ˜4 hours until the cultures reached an optical density of 2.0 at 600 nm. The cultures were cooled to 20° C. and induced with 1 mM IPTG. Fresh ampicillin was added to a final concentration of 50 μg/ml and the cells were grown overnight at 20° C.
Cell pellets (3 L) were lysed for purification to yield 15-24 mgs of purified NS5B. The lysis buffer consisted of 20 mM Tris-HCl, pH 7.4, 500 mM NaCl, 0.5% triton X-100, 1 mM DTT, 1 mM EDTA, 20% glycerol, 0.5 mg/ml lysozyme, 10 mM MgCl2, 15 ug/ml deoxyribonuclease I, and Complete TM protease inhibitor tablets (Roche). After addition of the lysis buffer, frozen cell pellets were resuspended using a tissue homogenizer. To reduce the viscosity of the sample, aliquots of the lysate were sonicated on ice using a microtip attached to a Branson sonicator. The sonicated lysate was centrifuged at 100,000×g for 1 hr at 4° C. and filtered through a 0.2 μm filter unit (Corning).
The protein was purified using three sequential chromatography steps: Heparin sepharose CL-6B, polyU sepharose 4B, and Hitrap SP sepharose (Pharmacia). The chromatography buffers were identical to the lysis buffer but contained no lysozyme, deoxyribonuclease I, MgCl2 or protease inhibitor and the NaCl concentration of the buffer was adjusted according to the requirements for charging the protein onto the column. Each column was eluted with a NaCl gradient which varied in length from 5-50 column volumes depending on the column type. After the final chromatography step, the resulting purity of the enzyme is >90% based on SDS-PAGE analysis. The enzyme was aliquoted and stored at −80° C.
Standard HCV NS5B RdRp enzyme assay. HCV RdRp genotype 1b assays were run in a final volume of 60 μl in 96 well plates (Costar 3912). The assay buffer is composed of 20 mM Hepes, pH 7.5, 2.5 mM KCl, 2.5 mM MgCl2, 1 mM DTT, 1.6 U RNAse inhibitor (Promega N2515), 0.1 mg/ml BSA (Promega R3961), and 2% glycerol. All compounds were serially diluted (3-fold) in DMSO and diluted further in water such that the final concentration of DMSO in the assay was 2%. HCV RdRp genotype 1b enzyme was used at a final concentration of 28 nM. A polyA template was used at 6 nM, and a biotinylated oligo-dT12 primer was used at 180 nM final concentration. Template was obtained commercially (Amersham 27-4110). Biotinylated primer was prepared by Sigma Genosys. 3H-UTP was used at 0.6 μCi (0.29 μM total UTP). Reactions were initiated by the addition of enzyme, incubated at 30° C. for 60 min, and stopped by adding 25 μl of 50 mM EDTA containing SPA beads (4 μg/μl, Amersham RPNQ 0007). Plates were read on a Packard Top Count NXT after >1 hr incubation at room temperature.
Modified HCV NS5B RdRp enzyme assay. A modified enzyme assay was performed essentially as described for the standard enzyme assay except for the following: The biotinylated oligo dT12 primer was precaptured on streptavidin-coated SPA beads by mixing primer and beads in assay buffer and incubating at room temperature for one hour. Unbound primer was removed after centrifugation. The primer-bound beads were resuspended in 20 mM Hepes buffer, pH 7.5 and used in the assay at final concentrations of 20 nM primer and 0.67 μg/μl beads. Order of addition in the assay: enzyme (14 nM) was added to diluted compound followed by the addition of a mixture of template (0.2 nM), 3H-UTP (0.6 μCi, 0.29 μM), and primer-bound beads, to initiate the reaction; concentrations given are final. Reactions were allowed to proceed for 4 hours at 30° C.
IC50 values for compounds were determined using seven different [I]. […]

T1 sequence (Q9WMX2 2420-2992): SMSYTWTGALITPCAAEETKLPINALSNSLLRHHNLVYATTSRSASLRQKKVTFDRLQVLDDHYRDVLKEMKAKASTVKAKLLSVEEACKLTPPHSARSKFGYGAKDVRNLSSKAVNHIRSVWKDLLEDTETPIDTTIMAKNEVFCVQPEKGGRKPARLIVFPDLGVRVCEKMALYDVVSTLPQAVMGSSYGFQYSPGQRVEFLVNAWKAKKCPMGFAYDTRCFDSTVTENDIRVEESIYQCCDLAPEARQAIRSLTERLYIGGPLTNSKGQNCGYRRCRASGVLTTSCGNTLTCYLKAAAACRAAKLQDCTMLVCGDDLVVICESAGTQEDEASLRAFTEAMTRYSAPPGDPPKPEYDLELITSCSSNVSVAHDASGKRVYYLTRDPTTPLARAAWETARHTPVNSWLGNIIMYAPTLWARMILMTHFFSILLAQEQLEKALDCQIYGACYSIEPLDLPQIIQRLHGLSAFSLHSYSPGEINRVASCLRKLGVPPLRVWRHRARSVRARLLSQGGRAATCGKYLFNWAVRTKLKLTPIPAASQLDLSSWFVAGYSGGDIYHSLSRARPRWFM

SMILES | EC50 (HCV replicon cells) [µM] | IC50 [1] [µM]
CCS(=O)(=O)C12CC1c1ccccc1-c1c(C3CCCCC3)c3ccc(C(=O)NS(=O)(=O)N(C)C)cc3n1C2 (stereo not shown) | 0.02 to 1 | 0.02 to 1
COc1ccc2c(c1)CC(S(=O)(=O)CCN1CCN(C)CC1)Cn1c-2c(C2CCCCC2)c2ccc(C(=O)NS(=O)(=O)N(C)C)cc21 (stereo not shown) | 0.02 to 1 | 0.02 to 1
COc1ccc2c(c1)C=C(S(=O)(=O)N1CCOCC1)Cn1c-2c(C2CCCCC2)c2ccc(C(=O)NS(=O)(=O)N(C)C)cc21 | 0.02 to 1 | 0.02 to 1
COc1ccc2c(c1)C1CC1(S(=O)(=O)N1CCOCC1)Cn1c-2c(C2CCCCC2)c2ccc(C(=O)NS(=O)(=O)N(C)C)cc21 (stereo not shown) | 0.02 to 1 | 0.02 to 1
COc1ccc2c(c1)CC(S(=O)(=O)N1CCOCC1)Cn1c-2c(C2CCCCC2)c2ccc(C(=O)O)cc21 (stereo not shown) | 0.02 to 1 | 0.02 to 1
COc1ccc2c(c1)CC(S(=O)(=O)N1CCOCC1)Cn1c-2c(C2CCCCC2)c2ccc(C(=O)NS(=O)(=O)N(C)C)cc21 (stereo not shown) | 0.02 to 1 | 0.02 to 1
CN(C)S(=O)(=O)NC(=O)c1ccc2c(C3CCCCC3)c3n(c2c1)CC(S(=O)(=O)N1CCOCC1)=Cc1ccccc1-3 | 0.02 to 1 | 0.02 to 1
COc1ccc2c(c1)C=C(S(=O)(=O)N1CCN(C)CC1)Cn1c-2c(C2CCCCC2)c2ccc(C(=O)NS(=O)(=O)N(C)C)cc21 | 0.02 to 1 | 0.02 to 1
COc1ccc2c(c1)C1CC1(S(=O)(=O)N1CCN(C)CC1)Cn1c-2c(C2CCCCC2)c2ccc(C(=O)NS(=O)(=O)N(C)C)cc21 (stereo not shown) | 0.02 to 1 | 0.02 to 1
COC(=O)c1ccc2c(C3CCCCC3)c3n(c2c1)CC1(S(=O)(=O)O)CC1c1cc(OC)ccc1-3 (stereo not shown) | > 1 | 0.07 to 1
COc1ccc2c(c1)C1CC1(S(=O)(=O)N1CC3C[C@H]1CN3C)Cn1c-2c(C2CCCCC2)c2ccc(C(=O)O)cc21 (stereo partly shown) | 0.02 to 1 | 0.02 to 1
COc1ccc2c(c1)C1CC1(S(=O)(=O)N1C[C@@H](C)N(C)[C@@H](C)C1)Cn1c-2c(C2CCCCC2)c2ccc(C(=O)O)cc21 (stereo partly shown) | 0.02 to 1 | 0.02 to 1
COc1ccc2c(c1)C1CC1(S(=O)(=O)N1C[C@@H](C)O[C@@H](C)C1)Cn1c-2c(C2CCCCC2)c2ccc(C(=O)O)cc21 (stereo partly shown) | 0.02 to 1 | 0.02 to 1
COc1ccc2c(c1)C1CC1(S(=O)(=O)N1CCN(S(C)(=O)=O)CC1)Cn1c-2c(C2CCCCC2)c2ccc(C(=O)O)cc21 (stereo not shown) | 1 to 10 | 0.02 to 1
COc1ccc2c(c1)C1CC1(S(=O)(=O)N1CCCN(C)CC1)Cn1c-2c(C2CCCCC2)c2ccc(C(=O)O)cc21 (stereo not shown) | 0.02 to 1 | 0.02 to 1
COc1ccc2c(c1)C1CC1(S(=O)(=O)N(C)C)Cn1c-2c(C2CCCCC2)c2ccc(C(=O)O)cc21 (stereo not shown) | 0.02 to 1 | 1 to 10
COc1ccc2c(c1)C1CC1(S(=O)(=O)N(C)CCN(C)C)Cn1c-2c(C2CCCCC2)c2ccc(C(=O)O)cc21 (stereo not shown) | 0.02 to 1 | 0.02 to 1
COc1ccc2c(c1)C1CC1(S(=O)(=O)N(C)CC(=O)N1CCOCC1)Cn1c-2c(C2CCCCC2)c2ccc(C(=O)O)cc21 (stereo not shown) | 0.02 to 1 | 0.02 to 1
COc1ccc2c(c1)C1CC1(S(=O)(=O)N1CCC(O)CC1)Cn1c-2c(C2CCCCC2)c2ccc(C(=O)O)cc21 (stereo not shown) | 0.02 to 1 | 0.02 to 1
COc1ccc2c(c1)C1CC1(S(=O)(=O)N1CC(O)C1)Cn1c-2c(C2CCCCC2)c2ccc(C(=O)O)cc21 (stereo not shown) | 0.02 to 1 | 0.02 to 1
COc1ccc2c(c1)C1CC1(S(=O)(=O)N1CC(C)(O)C1)Cn1c-2c(C2CCCCC2)c2ccc(C(=O)O)cc21 (stereo not shown) | 0.02 to 1 | 0.02 to 1
COc1ccc2c(c1)C1CC1(S(=O)(=O)N1CC3C[C@H]1CN3C)Cn1c-2c(C2CCCCC2)c2ccc(C(=O)NS(=O)(=O)N(C)C)cc21 (stereo partly shown) | 0.02 to 1 | 0.02 to 1
COc1ccc2c(c1)C1CC1(S(=O)(=O)N1C[C@@H](C)N(C)[C@@H](C)C1)Cn1c-2c(C2CCCCC2)c2ccc(C(=O)NS(=O)(=O)N(C)C)cc21 (stereo partly shown) | 0.02 to 1 | 0.02 to 1
COc1ccc2c(c1)C1CC1(S(=O)(=O)N1C[C@@H](C)N(C)[C@@H](C)C1)Cn1c-2c(C2CCCCC2)c2ccc(C(=O)NS(C)(=O)=O)cc21 (stereo partly shown) | 0.02 to 1 | 0.02 to 1
CCS(=O)(=O)NC(=O)c1ccc2c(C3CCCCC3)c3n(c2c1)CC1(S(=O)(=O)N2C[C@@H](C)N(C)[C@@H](C)C2)CC1c1cc(OC)ccc1-3 (stereo partly shown) | 0.02 to 1 | 0.02 to 1
COc1ccc2c(c1)C1CC1(S(=O)(=O)N1C[C@@H](C)N(C)[C@@H](C)C1)Cn1c-2c(C2CCCCC2)c2ccc(C(=O)NS(=O)(=O)C(C)C)cc21 (stereo partly shown) | 0.02 to 1 | 0.02 to 1
